Where no end group is shown, it is not given here. [ ]: non-standard residue; d: D form. Pen = CC(C)(S)[C@H](N)C(=O)O
Experiments:
OA synovial cells = experiment: PDTC inhibition of IL-1 and GPRP induction of ICAM-1 (ELISA); type: cell-based, human; conditions: PDTC pre-incubation 1.5 hours, IL-1 or GPRP overnight, ± SD, triplicate
From the text: (§1) NF-kappaB activation is already well known to affect a broad array of immediate-early gene products, such as TNF, interleukins, chemokines and colony stimulating factors; genes that are tightly regulated during inflammation and wound healing. […] PDTC is an anti-oxidant that prevents NF-kappaB activation and its translocation to the nucleus (Reference 26). […] [table]

RA synovial cells = experiment: as above; type: cell-based, human; conditions: for ICAM-1 O.D. 492: PDTC pre-incubation 1.5 hours, IL-1 or GPRP overnight, ± SD, triplicate
From the text: as §1

RA patients = conditions: double blind clinical trial (Reference 29); cited from earlier work
foreskin fibroblasts = experiment: ICAM-1 cell-ELISA (O.D. 492); type: cell-based, human; conditions: overnight; for ICAM-1 O.D. 492: Foreskin line, IL-1 0.5 ng/ml, GPRP or GPRP-amide 1 mg/ml, fibrinogen receptor peptide 0.1 mg/ml, FPA, FPB 10^−4 M
RA synovial fibroblasts [1] = experiment: ICAM-1 cell-ELISA (O.D. 492); type: cell-based, human; conditions: for ICAM-1 O.D. 492: overnight, IL-1 0.5 ng/ml, GPRP or GPRP-amide 1 mg/ml, fibrinogen receptor peptide 0.1 mg/ml, FPA, FPB 10^−4 M; for Effect on ICAM-1 induction: synovial cell incubation with coagulation-related peptides
[2] = test system: synovial cells from patients with osteoarthritis (OA); experiment: ICAM-1 ELISA (O.D. 492); type: cell-based, human; conditions: OA line; overnight; IL-1 0.5 ng/ml, GPRP or GPRP-amide 1 mg/ml, fibrinogen receptor peptide 0.1 mg/ml, FPA, FPB 10^−4 M
RA synovial fibroblasts [3] = experiment: Binding of biotinylated peptide by flow cytometry; design: species or system human; conditions: RA #16, Avidin-FITC
From the text: Table 9 illustrates an analysis of the binding of biotinylated amino acid sequence 17-28 of human fibrinogen Aα Chain (SAC[KBtn]) to RA synovial fibroblasts by Flow Cytometry. The biotinylated control peptide (KREE-SEQ ID NO:3) represents corresponding sequences derived from the B/beta chain of fibrinogen following removal of Fibrinopeptide B.

fibrin polymerization = conditions: cited from earlier work
fibrin polymerization, sequence (P02679 27-453, one chain of several): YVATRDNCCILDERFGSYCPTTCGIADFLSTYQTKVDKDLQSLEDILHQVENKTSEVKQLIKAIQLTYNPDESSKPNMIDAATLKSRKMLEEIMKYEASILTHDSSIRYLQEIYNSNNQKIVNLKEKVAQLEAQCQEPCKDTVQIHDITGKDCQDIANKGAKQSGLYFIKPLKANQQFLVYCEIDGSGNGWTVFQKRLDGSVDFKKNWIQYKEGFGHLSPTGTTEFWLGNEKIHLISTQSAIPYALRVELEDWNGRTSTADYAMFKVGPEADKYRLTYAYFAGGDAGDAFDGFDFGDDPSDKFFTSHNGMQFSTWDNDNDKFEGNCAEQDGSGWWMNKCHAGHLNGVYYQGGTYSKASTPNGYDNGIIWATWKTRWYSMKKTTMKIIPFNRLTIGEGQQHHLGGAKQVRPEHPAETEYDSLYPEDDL
fibrin polymerization, sequence (P02671 20-639 isoform P02671-2 partner limits assumed, one chain of several): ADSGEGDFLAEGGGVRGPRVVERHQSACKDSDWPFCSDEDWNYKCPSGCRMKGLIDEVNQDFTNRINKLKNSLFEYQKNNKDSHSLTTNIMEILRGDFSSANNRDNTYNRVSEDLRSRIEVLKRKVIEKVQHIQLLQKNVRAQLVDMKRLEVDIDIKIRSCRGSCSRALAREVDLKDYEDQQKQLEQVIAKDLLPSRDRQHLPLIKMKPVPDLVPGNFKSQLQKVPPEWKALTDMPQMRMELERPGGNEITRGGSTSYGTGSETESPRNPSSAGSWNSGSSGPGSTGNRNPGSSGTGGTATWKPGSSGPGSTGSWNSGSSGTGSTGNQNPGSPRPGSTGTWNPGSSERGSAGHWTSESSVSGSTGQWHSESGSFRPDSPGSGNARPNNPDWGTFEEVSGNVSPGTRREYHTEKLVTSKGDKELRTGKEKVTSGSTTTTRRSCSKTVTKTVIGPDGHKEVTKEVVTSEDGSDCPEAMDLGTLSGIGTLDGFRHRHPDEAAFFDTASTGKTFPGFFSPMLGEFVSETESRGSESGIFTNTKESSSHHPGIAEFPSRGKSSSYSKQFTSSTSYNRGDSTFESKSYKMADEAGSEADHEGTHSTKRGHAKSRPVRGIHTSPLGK

Synovial cells = experiment: SAC competition assay by flow cytometry; type: binding, human; conditions: for Mean (fluorescence of bound SAC[KBtn]): Avidin-FITC
From the text: Thus, labeled peptide could facilitate the isolation, identification and characterization of its receptor, through standard immunological techniques such as immunohistochemistry, flow cytometry and immunoprecipitation.

[4] = test system: RA derived synovial cells; experiment: In vitro T cell adhesion assay; type: cell-based, human; conditions: IL-1 beta 1 ng/ml overnight, ± SD, triplicate wells
[5] = test system: OA derived synovial cells; experiment: In vitro T cell adhesion assay; type: cell-based, human; conditions: OA line 15; IL-1 beta 1 ng/ml overnight; ± SD, triplicate wells
[6] = test system: foreskin fibroblast cells; experiment: In vitro T cell adhesion assay; type: cell-based, human; conditions: Foreskin line; IL-1 beta 1 ng/ml overnight; ± SD, triplicate wells
monocytes = monocytes stimulated with PHA; for comparison; cited from earlier work
RA synovial fibroblasts [7] = experiment: GRO-alpha ELISA on cell culture supernatants; type: cell-based, human; conditions: RA line 7
Protocol: I used commercial ELISA kits to assay cell culture supernatants of RA fibroblasts that were cultured for both 24 and 48 hours with or without peptide.

[8] = unlabeled competitor 2.5 mg for 3 hours, then labeled SAC[KBtn] for 1 hour

S=C(S)N1CCCC1 [PDTC, pyrrolidinedithio-carbamate]
ICAM-1 O.D. 492 (OA synovial cells; OA line 2): 0.65 ± .03 | ICAM-1 O.D. 492 (OA synovial cells; OA line 8): 0.55 ± .04 | ICAM-1 O.D. 492 (RA synovial cells; RA line 5): 0.75 ± .06 | ICAM-1 O.D. 492 (RA synovial cells; RA line 6): 0.61 ± .02 | Effect on increase in ICAM-1 expression induced by Interleukin-1 and by GPRP (RA synovial cells; inclusion of PDTC): stopped the entire increase in ICAM-1 expression

C[C@]12Cc3c[nH]nc3C[C@@H]1CC[C@@H]1[C@@H]2CC[C@@]2(C)[C@H]1CC[C@]2(C)O [stanozolol]
Clinical outcome in RA patients (RA patients): clinical benefit

Ac-[Pen]RGDC (cysteine pairing not given here) [Fib. Recept. Pept., reference compound]
ICAM-1 O.D. 492 (foreskin fibroblasts): 0.73 ± .08 | ICAM-1 O.D. 492 (RA synovial fibroblasts [1]; RA line 1): 0.56 ± .02 | ICAM-1 O.D. 492 (RA synovial fibroblasts [1]; RA line 2): 0.42 ± .01 | ICAM-1 O.D. 492 [2]: 0.38 ± .02

FPA: amino acids 1 through 16 of the fibrinogen A/alpha chains cleaved off by thrombin (ADSGEGDFLAEGGGVR; Fibrinopeptide A; UniProt P02671 20-35, looked up) [reference compound]
ICAM-1 O.D. 492 (foreskin fibroblasts): 0.69 ± .02 | ICAM-1 O.D. 492 (RA synovial fibroblasts [1]; RA line 1): 0.61 ± .05 | ICAM-1 O.D. 492 (RA synovial fibroblasts [1]; RA line 2): 0.43 ± .03 | Effect on ICAM-1 induction (RA synovial fibroblasts [1]): no effect | ICAM-1 O.D. 492 [2]: 0.31 ± .005

FPB: Fibrinopeptide B, coagulation-related peptide (QGVNDNEEGFFSAR; ends and bridges not checked; UniProt P02675 31-44, looked up) [reference compound]
ICAM-1 O.D. 492 (foreskin fibroblasts): 0.80 ± .02 | ICAM-1 O.D. 492 (RA synovial fibroblasts [1]; RA line 1): 0.67 ± .04 | ICAM-1 O.D. 492 (RA synovial fibroblasts [1]; RA line 2): 0.47 ± .02 | Effect on ICAM-1 induction (RA synovial fibroblasts [1]): no effect | ICAM-1 O.D. 492 [2]: 0.41 ± .04

GHRPLDKKREE[KBtn] (GHRPLDKKREEK) [KREE [KBtn], biotinylated control peptide derived from the B/beta chain of fibrinogen, reference compound]
% Cells Positive (RA synovial fibroblasts [3]; 100 ug biotinylated peptide): 10.6% | Mean Fluorescent Channel (RA synovial fibroblasts [3]; 100 ug biotinylated peptide): 20.37

GPRP-amide: GPRP with the carboxyl group at the end of Pro4 changed to an amide group (OH to NH2) (GPRP-NH2)
ICAM-1 O.D. 492 (foreskin fibroblasts): 0.80 ± .01 | ICAM-1 O.D. 492 (RA synovial fibroblasts [1]; RA line 1): 0.65 ± .02 | ICAM-1 O.D. 492 (RA synovial fibroblasts [1]; RA line 2): 0.49 ± .02 | Induction of ICAM-1 in synovial fibroblasts (RA synovial fibroblasts [1]; amide analog substituted for GPRP): totally ineffective | Effectiveness at inhibiting polymerization relative to H-Gly-Pro-Arg-Pro-OH (fibrin polymerization; Reference 20): approximately three and one-half | ICAM-1 O.D. 492 [2]: 0.44 ± .01

GPRVVERHQSAC (Unknown. Obtained from a commercial source.)
Competition with biotin-labeled SAC for binding to human synovial fibroblasts (Synovial cells; unlabeled competitor): can compete | Mean (fluorescence of bound SAC[KBtn]) (Synovial cells; [8]): 36.30

GPRVVERHQSAC[KBtn] (GPRVVERHQSACK) [SAC [KBtn]]
% Cells Positive (RA synovial fibroblasts [3]; 100 ug biotinylated peptide): 86.3% | Mean Fluorescent Channel (RA synovial fibroblasts [3]; 100 ug biotinylated peptide): 257.9 | % Cells Positive (RA synovial fibroblasts [3]; 200 ug biotinylated peptide): 80.0% | Mean Fluorescent Channel (RA synovial fibroblasts [3]; 200 ug biotinylated peptide): 125.1 | Mean (fluorescence of bound SAC[KBtn]) (Synovial cells; labeled SAC[KBtn] without competitor): 51.20

Gly-Pro-Arg [reference compound]
Inhibition of fibrin polymerization (fibrin polymerization; literature (Reference 25)): functions well as a polymerization inhibitor

IL-1: cytokine, an inducer of ICAM-1, positive control [reference compound]
ICAM-1 O.D. 492 (foreskin fibroblasts): 1.77 ± .13 | ICAM-1 O.D. 492 (RA synovial fibroblasts [1]; RA line 1): 1.74 ± .08 | ICAM-1 O.D. 492 (RA synovial fibroblasts [1]; RA line 2): 1.18 ± .03 | Adherent T cell numbers ([4]; RA line 7): 116 ± 14 | Adherent T cell numbers ([4]; RA line 8): 58 ± 21 | ICAM-1 O.D. 492 (OA synovial cells; OA line 2): 1.60 ± .03 | ICAM-1 O.D. 492 (OA synovial cells; OA line 8): 1.51 ± .05 | ICAM-1 O.D. 492 (RA synovial cells; RA line 5): 1.88 ± .05 | ICAM-1 O.D. 492 (RA synovial cells; RA line 6): 1.80 ± .04 | ICAM-1 O.D. 492 [2]: 1.36 ± .03 | Adherent T cell numbers [5]: 66 ± 19 | Adherent T cell numbers [6]: 94 ± 16

phytohemagglutinin
Increase of IL-8 production (monocytes): approximately three

B1: interferon γ: positive control for foreskin fibroblasts (protein, UniProt P01579 24-161, looked up)
Interferon gamma: QDPYVKEAENLKKYFNAGHSDVADNGTLFLGILKNWKEESDRKIMQSQIVSFYFKLFKNFKDDQSIQKSVETIKEDMNVKFFNSNKKKRDDFEKLTNYSVTDLNVQRKAIHELIQVMAELSPAAKTGKRKRSQMLFRG
ICAM-1 expression O.D. 492 (foreskin fibroblasts; Foreskin fibroblasts, fibrin clots 0.6 mg/ml, GPRP 1 mg/ml or interferon γ 200 U/ml, mean ± SD): 1.57 ± .13

B2: Fibrinogen: plasma protein precursor of fibrin; unlabeled competitor in Table 10 (protein)
chain 1: ADSGEGDFLAEGGGVRGPRVVERHQSACKDSDWPFCSDEDWNYKCPSGCRMKGLIDEVNQDFTNRINKLKNSLFEYQKNNKDSHSLTTNIMEILRGDFSSANNRDNTYNRVSEDLRSRIEVLKRKVIEKVQHIQLLQKNVRAQLVDMKRLEVDIDIKIRSCRGSCSRALAREVDLKDYEDQQKQLEQVIAKDLLPSRDRQHLPLIKMKPVPDLVPGNFKSQLQKVPPEWKALTDMPQMRMELERPGGNEITRGGSTSYGTGSETESPRNPSSAGSWNSGSSGPGSTGNRNPGSSGTGGTATWKPGSSGPGSTGSWNSGSSGTGSTGNQNPGSPRPGSTGTWNPGSSERGSAGHWTSESSVSGSTGQWHSESGSFRPDSPGSGNARPNNPDWGTFEEVSGNVSPGTRREYHTEKLVTSKGDKELRTGKEKVTSGSTTTTRRSCSKTVTKTVIGPDGHKEVTKEVVTSEDGSDCPEAMDLGTLSGIGTLDGFRHRHPDEAAFFDTASTGKTFPGFFSPMLGEFVSETESRGSESGIFTNTKESSSHHPGIAEFPSRGKSSSYSKQFTSSTSYNRGDSTFESKSYKMADEAGSEADHEGTHSTKRGHAKSRPV
chain 2: QGVNDNEEGFFSARGHRPLDKKREEAPSLRPAPPPISGGGYRARPAKAAATQKKVERKAPDAGGCLHADPDLGVLCPTGCQLQEALLQQERPIRNSVDELNNNVEAVSQTSSSSFQYMYLLKDLWQKRQKQVKDNENVVNEYSSELEKHQLYIDETVNSNIPTNLRVLRSILENLRSKIQKLESDVSAQMEYCRTPCTVSCNIPVVSGKECEEIIRKGGETSEMYLIQPDSSVKPYRVYCDMNTENGGWTVIQNRQDGSVDFGRKWDPYKQGFGNVATNTDGKNYCGLPGEYWLGNDKISQLTRMGPTELLIEMEDWKGDKVKAHYGGFTVQNEANKYQISVNKYRGTAGNALMDGASQLMGENRTMTIHNGMFFSTYDRDNDGWLTSDPRKQCSKEDGGGWWYNRCHAANPNGRYYWGGQYTWDMAKHGTDDGVVWMNWKGSWYSMRKMSMKIRPFFPQQ
chain 3: YVATRDNCCILDERFGSYCPTTCGIADFLSTYQTKVDKDLQSLEDILHQVENKTSEVKQLIKAIQLTYNPDESSKPNMIDAATLKSRKMLEEIMKYEASILTHDSSIRYLQEIYNSNNQKIVNLKEKVAQLEAQCQEPCKDTVQIHDITGKDCQDIANKGAKQSGLYFIKPLKANQQFLVYCEIDGSGNGWTVFQKRLDGSVDFKKNWIQYKEGFGHLSPTGTTEFWLGNEKIHLISTQSAIPYALRVELEDWNGRTSTADYAMFKVGPEADKYRLTYAYFAGGDAGDAFDGFDFGDDPSDKFFTSHNGMQFSTWDNDNDKFEGNCAEQDGSGWWMNKCHAGHLNGVYYQGGTYSKASTPNGYDNGIIWATWKTRWYSMKKTTMKIIPFNRLTIGEGQQHHLGGAKQAGDV
Mean (fluorescence of bound SAC[KBtn]) (Synovial cells; [8]): 21.63 | GRO-alpha (RA synovial fibroblasts [7]): 8000 pg/mL | GRO-alpha Fold Increase (RA synovial fibroblasts [7]; versus control): 145X

Reference: patent publication US6908899B2, “Pro-inflammatory fibrinopeptide” (U.S. Dept. of Veterans Affairs, priority 2001, dated 2005)
